How the values were obtained:
P-Rex1 DHPH domain = target: T1, P-Rex1 DHPH domain (Homo sapiens, UniProt Q8TCU6); experiment: Mant-GTP GEF activity assay; type: biochemical
T1 construct: 100 nM EE-P-Rex1 DHPH domains (PREX-in1, compounds 2–10 and 30–128); made in house; host or cells: Sf9 cells (baculovirus)
Method: The mant-GTP GEF activity assay measures the binding of fluorescent 2’/3’-O-(N-Methyl-anthraniloyl)-guanosine-5’-triphosphate (mant)-GTP to Rac, making use of the spectroscopic differences between bound and free mant-GTP. P-Rex1 DHPH domain protein was diluted to 375 nM in exchange buffer (20 mM Tris, pH 7.5 RT, 50 mM NaCl, 200 mM KCl, 4 mM MgCl2, 50 μg/ml fatty-acid-free BSA). The inhibitors PREX-in1 or EHop-016 were diluted to various concentrations in exchange buffer containing 15% DMSO. 4.4 µl P-Rex1 DHPH domain protein were incubated with 1.1 µl PREX-in1 or EHop-016 for 30 min at 30°C, or were mock treated with 1.1 µl vehicle (15% DMSO). 5 μl of the P-Rex1 DHPH / inhibitor mix was then added to 10 µl of a 1.5x reaction mix containing 225 nM bacteria-derived EE-Rac1, 7.5 µM mant-GTP and 15 µM GTP in exchange buffer in a 96-well plate. Final assay concentrations were 150 nM EE-Rac1, 100 nM P-Rex1 DHPH domain, 5 μM mant-GTP, 10 µM GTP, […] fatty-acid-free BSA, 1% DMSO, and the indicated concentrations of inhibitor. Mant-GTP fluorescence was measured in real time in a PHERAstar 384-well fluorescence plate reader at 25°C for 40 min using 360 nm excitation and 440 nm emission.

P-Rex1 DH domain = target: T2, P-Rex1 DH domain (Homo sapiens, UniProt Q8TCU6); experiment: Liposome-based GEF activity assay, isolated P-Rex1 DH domain; type: biochemical; conditions: 10 µM, 200 nM DH domain, without PIP3; read-out: inhibition of constitutive Rac-GEF activity of isolated P-Rex1 DH domain
T2 construct: 200 nM iDH EE-P-Rex1 DH domain (compounds 11–29); made in house; host or cells: Sf9 cells (baculovirus)
Method: Full-length N-terminally EE-tagged P-Rex1, P-Rex2, the P-Rex1 DH and DHPH domains and the P-Rex2 DH domain were produced in Sf9 cells using baculoviral transduction and were purified using anti-EE beads, as previously described. Briefly, frozen pellets from 500 ml of Sf9 culture infected with P-Rex expressing high-titre baculovirus were resuspended in ice-cold lysis Sf9-cell lysis buffer 2 (1x PBS, 1% Triton X-100, 5 mM EGTA, 1 mM EDTA, 25 mM NaF, 20 mM β-glycerophosphate, 1 mM DTT, 100 µM PMSF, 10 μg/ml each of leupeptin, pepstatin A, aprotinin and antipain) for 5 min and then ultracentrifuged at 118,000 × g for 1 h at 4°C. Supernatants were incubated with pre-washed anti-EE beads for 90 min on ice with end-over-end rotation. Beads were washed 4 times in wash buffer (2x PBS, 0.1% Triton X-100, 1 mM EGTA) and 5 times in elution buffer (1x PBS, 10% glycerol, 1 mM DTT, 1 mM EGTA, 0.01% Na azide), and protein was eluted by incubation with elution buffer containing Ac-EEYMPME peptide as described above. Protein was concentrated in a YM-100 Centricon (Millipore) at 5000 × g at 4°C. Fatty acid-free BSA and glycerol were added to final concentrations of 2 mg/ml and 50%, respectively. Protein concentration and purity were determined by coomassie staining of SDS-PAGE gels. Full-length Tiam1, expressed in and purified from Sf9 cells, was a kind gift from Angeliki Malliri, CRUK Manchester Institute, UK. […]
Liposome-based GEF activity assays were carried out essentially as described, except that GEFs were incubated with inhibitor compounds prior to the assay. […] Small GTPases were isolated using anti-EE antibody-coupled Sepharose beads or glutathione Sepharose beads, as appropriate, by incubation on ice for 90 min with end-over-end rotation, four washes in ice-cold wash buffer and resuspension of beads in Ultima Gold scintillation fluid (Perkin Elmer). ^35S-GTPγS incorporation was assessed by scintillation counting (Packard 1600TR, Liquid Scintillation Analyser).

T1 sequence (Q8TCU6 49-392 limits assumed): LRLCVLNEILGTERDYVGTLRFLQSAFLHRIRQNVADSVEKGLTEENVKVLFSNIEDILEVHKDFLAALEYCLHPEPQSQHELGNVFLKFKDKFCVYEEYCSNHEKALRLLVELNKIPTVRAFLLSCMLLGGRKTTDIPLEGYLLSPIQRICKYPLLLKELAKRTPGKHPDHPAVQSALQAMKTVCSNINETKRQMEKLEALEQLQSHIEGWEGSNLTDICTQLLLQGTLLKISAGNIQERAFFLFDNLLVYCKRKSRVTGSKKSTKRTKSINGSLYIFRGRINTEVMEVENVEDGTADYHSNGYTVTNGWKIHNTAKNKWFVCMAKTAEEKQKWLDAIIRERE
T2 sequence (Q8TCU6 49-240 limits assumed): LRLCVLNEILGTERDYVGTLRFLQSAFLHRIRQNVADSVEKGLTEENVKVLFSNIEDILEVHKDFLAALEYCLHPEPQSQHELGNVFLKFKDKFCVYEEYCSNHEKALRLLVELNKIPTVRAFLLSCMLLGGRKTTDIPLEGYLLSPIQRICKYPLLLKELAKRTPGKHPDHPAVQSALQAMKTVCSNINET

SMILES: COc1ccc(-c2[nH]nc3c2C(c2ccc(-c4ccc(Cl)cc4)o2)C(C#N)=C(N)O3)cc1 (stereo not drawn) [PREX-in1, 6-amino-4-[5-(4-chlorophenyl)-2-furyl]-3-(4-methoxyphenyl)-2,4-dihydropyrano[2,3-c]pyrazole-5-carbonitrile]
- IC50 (P-Rex1 DHPH domain; 150 nM EE-Rac1, 100 nM P-Rex1 DHPH, read-out: IC50 of inhibition of P-Rex1 DHPH in mant-GTP assay): ~10 µM
- effect on P-Rex1 DHPH-dependent mant-GTP loading of Rac1 (P-Rex1 DHPH domain; 10 µM): inhibited
- inhibition at 10 µM (P-Rex1 DH domain): 98%

Reference: publication PMC9645260, “Small-molecule inhibitors of P-Rex guanine-nucleotide exchange factors” (Small GTPases, 2022)
